Experimental data reported in US20030059843A1, “High throughput screening of ligand binding to macromolecules using high resolution powder diffraction” (priority 2001, published 2003).
Entries after “also recorded” stand apart in the source; their conditions may differ.

Target: T1, Chicken egg lysozyme (Gallus gallus, UniProt P00698)
T1 construct: Chicken egg lysozyme (EC 3.2.1.17, FisherBiotech, 3X crystallized, lot Nos. 995417-12 and 996924-12); purchased FisherBiotech; host or cells: chicken egg (natural source)
T1 sequence (P00698 19-147): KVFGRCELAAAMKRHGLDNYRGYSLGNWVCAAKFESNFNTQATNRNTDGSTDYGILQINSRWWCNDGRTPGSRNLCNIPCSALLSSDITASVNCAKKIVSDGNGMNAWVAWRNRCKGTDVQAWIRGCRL
Test: Ligand binding to polycrystalline lysozyme detected by high resolution X-ray powder diffraction
Description: The screening method of the present invention can be as follows. Two samples of polycrystalline material are produced as slurries. By “slurry” is meant, for example, a suspension of microcrystals of a macromolecule or macromolecule-ligand complex in a liquid. One of the samples includes the target protein or macromolecule and a suitable solvent. The other of the samples includes the target protein or macromolecule, one or more selected ligands and the same solvent as in the first sample. High resolution powder diffraction patterns are obtained for the polycrystalline macromolecule material in each sample. The patterns from the first and second samples are then compared to see if there is any discernable difference between the two sets of diffraction patterns beyond expected or measured experimental error or variation. When there is such a discernable difference between the two sets of diffraction patterns, that is a positive indication for the formation of a complex between the target protein or macromolecule and one or more of the selected ligands. […] In another manner, the pattern of the first sample can be inspected or analyzed to determine the positions of the diffraction peaks from the unbound form of the target protein or macromolecule, while the pattern of the second sample can be inspected or analyzed to determine the positions of the diffraction peaks from the target protein or macromolecule in the presence of the one or more selected ligands. Differences in such diffraction peaks can then be used to determine if there is a difference indicating binding of a ligand. This process is readily automated via computerized data processing routines.
Chicken egg lysozyme (EC 3.2.1.17, FisherBiotech, 3X crystallized, lot Nos. 995417-12 and 996924-12) and N-acetylglucosamine (NAG, ICN Biomedicals, Inc. lot No. R9745), pH 6.0 0.05M Na2HPO4/KH2PO4 buffer (Fisher Sci.), pH 5.0 0.05M KHphthalate/NaOH buffer (Hydrion™, Aldrich Chem.) and NaCl (“Certified for Biological Use”, Fisher Sci.) were used as received. In a typical sample preparation, a polycrystalline slurry was made by combining ˜20 mg lysozyme (1.4 μmol), about 10 mg of NAG (45 μmol) and 200 μl of 0.5M NaCl pH 6.0 buffer with an agate mortar and pestle. Polycrystalline precipitate formed within a few seconds. The slurry was loaded into a 1.5 mm diameter glass capillary, and centrifuged to pack the slurry. Excess mother liquor was removed and the capillary flame sealed to prevent subsequent solvent evaporation. In a similar way, a polycrystalline sample of unbound lysozyme in pH 6.0 0.5M NaCl buffer was prepared. Similar samples with pH 5.0 0.5M NaCl buffer were also prepared. Samples were about 8 mm long. As each sample was prepared, X-ray powder diffraction data were immediately collected at room temperature (23° C.) on beam line X3bl at the National Synchrotron Light Source, Brookhaven National Laboratory, equipped with a double Si(111) monochromator and a Ge(111) analyser; the sample was spun during data collection to ensure good powder averaging.

lattice parameter a smaller compared to pure lysozyme from the same solvent (pH 5.0 0.5M NaCl): 0.06% | lattice parameter c larger compared to pure lysozyme from the same solvent (pH 5.0 0.5M NaCl): 0.15% | lattice parameter a smaller compared to apo-protein precipitated from the same buffer (pH 6.0 0.5M NaCl): 0.21% | lattice parameter c larger compared to apo-protein precipitated from the same buffer (pH 6.0 0.5M NaCl): 0.49%
Structure (SMILES): CC(=O)N[C@H]1C(O)O[C@H](CO)[C@@H](O)[C@@H]1O (stereo partly shown) [NAG, N-acetylglucosamine]
change in powder diffraction pattern versus unbound lysozyme (complex formation) (slurry from pH 5.0 0.5M NaCl buffer, FIG. 2): no visible change in the powder pattern; also recorded: no changes evident | change in powder diffraction pattern versus unbound lysozyme (complex formation) (slurry from pH 6.0 0.5M NaCl buffer, FIG. 1): a structural modification has occurred associated with the formation of a NAG/lysozyme complex | change in powder diffraction pattern versus unbound lysozyme (complex formation) (slurry from pH 6.0 0.5M NaCl buffer, FIG. 1, listed as α-NAG): easily visible changes in the powder diffraction patterns
